The results in this text go back to ChEMBL document CHEMBL5579867, “Ligand-Based Pharmacophoric Design and Anti-inflammatory Evaluation of Triazole Linked Semisynthetic Labdane Conjugates” (ACS Med Chem Lett, 2024).

Data set [1] is described as follows: Inhibition of TNF-alpha induced ICAM-1 protein expression in HUVEC cells. The format is functional, cell-based. As to conditions: Homo sapiens.
For data set [2], the system named is RAW264.7. The data set is described as follows: Antiinflammatory activity in LPS-induced mouse RAW264.7 cells assessed as inhibition of IL-6 production at 20 uM pretreated for 1 hr followed by LPS stimulation and measured after 24 hrs by ELISA. Conditions: time 25.0 hrs. It counts as functional, cell-based. For orientation: ELISA stands for enzyme-linked immunosorbent assay.

The test system of data set [3] is RAW264.7. In words: Antiinflammatory activity in LPS-induced mouse RAW264.7 cells assessed as inhibition of IL-6 production pretreated for 1 hr followed by LPS stimulation and measured after 24 hrs by ELISA. It counts as functional, cell-based. As to conditions: dose 1-10 µM, time 25.0 hrs.
In data set [4] the test system is RAW264.7. In words: Effect on NF-kappaB p65 protein expression in LPS-induced mouse RAW264.7 cells at 10 to 20 uM pretreated for 1 hr followed by LPS stimulation and measured after 24 hrs by Western blot analysis. It counts as functional, cell-based. As to conditions: dose 10-20 µM, time 25.0 hrs.
Data set [5] relates to RAW264.7. In words: Antiinflammatory activity in LPS-induced mouse RAW264.7 cells assessed as inhibition of NO production pretreated for 1 hr followed by LPS stimulation and measured after 23 hrs by Griess method. It counts as functional, cell-based. In general terms: Nitrite, measured by Griess reagent, commonly stands in for NO production.
The subject of data set [6] is RAW264.7. The data set is described as follows: Antiinflammatory activity in LPS-induced mouse RAW264.7 cells assessed as increase in IL-10 production pretreated for 1 hr followed by LPS stimulation and measured after 24 hrs by ELISA. The format is functional, cell-based. Conditions: dose 1-10 µM, time 25.0 hrs.
Data set [7] has as its system RAW264.7. In words: Cytotoxicity against mouse RAW264.7 cells assessed as reduction in cell viability at 1 to 20 uM incubated for 24 hrs by MTT assay. It counts as toxicity, cell-based. Conditions: raw264.7, 24 h, dose 1-20 µM. (Formazan colour is commonly taken as a measure of viable cells.)
Data set [8] concerns RAW264.7. The data set is described as follows: Antiinflammatory activity in LPS-induced mouse RAW264.7 cells assessed as reduction in COX-2 protein expression pretreated for 1 hr followed by LPS stimulation and measured after 24 hrs by Western blot analysis. The format is functional, cell-based. As to conditions: dose 10-20 µM, time 25.0 hrs.
In data set [9] the test system is RAW264.7. In words: Antiinflammatory activity in LPS-induced mouse RAW264.7 cells assessed as reduction in iNOS protein expression pretreated for 1 hr followed by LPS stimulation and measured after 24 hrs by Western blot analysis. The format is functional, cell-based. As to conditions: dose 10-20 µM, time 25.0 hrs.
Data set [10] relates to RAW264.7. In words: Antiinflammatory activity in LPS-induced mouse RAW264.7 cells assessed as inhibition of TNF-alpha production pretreated for 1 hr followed by LPS stimulation and measured after 24 hrs by ELISA. The format is functional, cell-based. Conditions: dose 1-10 µM, time 25.0 hrs.
Data set [11] has as its system RAW264.7. In words: Antiinflammatory activity in LPS-induced mouse RAW264.7 cells assessed as inhibition of TNF-alpha production at 20 uM pretreated for 1 hr followed by LPS stimulation and measured after 24 hrs by ELISA. As to conditions: time 25.0 hrs. It counts as functional, cell-based.
Data set [12] relates to RAW264.7. In words: Antiinflammatory activity in LPS-induced mouse RAW264.7 cells assessed as inhibition of NO production at 1 to 20 uM pretreated for 1 hr followed by LPS stimulation and measured after 23 hrs by Griess method. As to conditions: dose 1-20 µM, time 24.0 hrs. The format is functional, cell-based.
Data set [13] has as its system RAW264.7. The data set is described as follows: Inhibition of LPS-induced NF-kappaB activation in mouse RAW264.7 cells assessed as inhibition of p65 phosphorylation pretreated for 1 hr followed by LPS stimulation and measured after 24 hrs by Western blot analysis. As to conditions: dose 10-20 µM, time 25.0 hrs. The format is cell-based.
In data set [14] the test system is RAW264.7. The data set is described as follows: Inhibition of LPS-induced NF-kappaB activation in mouse RAW264.7 cells assessed as reduction in nuclear translocation pretreated for 1 hr followed by LPS stimulation and measured after 24 hrs by immunofluorescence staining based fluorescence microscopic analysis. The format is cell-based. Conditions: dose 10-20 µM, time 25.0 hrs.

Data set [15] has as its system RAW264.7. The data set is described as follows: Inhibition of LPS-induced NF-kappaB activation in mouse RAW264.7 cells assessed as inhibition of p65 phosphorylation at 20 uM pretreated for 1 hr followed by LPS stimulation and measured after 24 hrs by Western blot analysis. The format is cell-based. Conditions: time 25.0 hrs.
Data set [16] deals with T1, Polyunsaturated fatty acid lipoxygenase ALOX15 (Homo sapiens, UniProt P16050).
T1 sequence (P16050 whole entry): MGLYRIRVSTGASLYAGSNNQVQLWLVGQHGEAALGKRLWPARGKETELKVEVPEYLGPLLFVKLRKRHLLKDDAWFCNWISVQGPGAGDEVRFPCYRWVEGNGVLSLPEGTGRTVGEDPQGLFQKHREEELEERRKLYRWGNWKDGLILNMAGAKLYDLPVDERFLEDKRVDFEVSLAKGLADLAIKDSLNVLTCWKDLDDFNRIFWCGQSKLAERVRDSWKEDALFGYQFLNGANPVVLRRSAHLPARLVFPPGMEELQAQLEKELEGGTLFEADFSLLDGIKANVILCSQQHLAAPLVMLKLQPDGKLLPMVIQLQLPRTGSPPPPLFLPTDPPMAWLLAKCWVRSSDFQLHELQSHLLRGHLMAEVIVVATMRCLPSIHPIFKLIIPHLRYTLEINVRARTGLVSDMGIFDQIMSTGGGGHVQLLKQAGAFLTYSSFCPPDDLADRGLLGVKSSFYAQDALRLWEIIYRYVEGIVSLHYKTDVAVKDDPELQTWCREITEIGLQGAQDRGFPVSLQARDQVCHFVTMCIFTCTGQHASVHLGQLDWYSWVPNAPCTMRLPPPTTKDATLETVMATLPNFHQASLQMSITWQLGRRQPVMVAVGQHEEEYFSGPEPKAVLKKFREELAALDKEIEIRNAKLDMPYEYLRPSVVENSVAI
The data set is described as follows: Inhibition of LOX-15 (unknown origin).

A word on the IC50: it is the concentration needed to halve the response being measured.

Active and inactive are the calls of the source. No cut-off for these calls is given here.

For `COc1ccc(N/N=C2\C(=O)N(CCCn3cncn3)c3ccc(Br)cc32)cc1`, in [1], 20 µM corresponded to half-maximal inhibition (IC50).
`C=C1CC[C@H]2C(C)(C)CCC[C@]2(C)[C@H]1C/C=C(/C=O)CC(=O)OCc1cn(CCN2C(=O)C(=O)c3ccccc32)nn1`: the result in data set [2], in data set [11] and in data set [12] was Active. The Activity result in data set [3] is “Dose-Dependent Effect”; in [6], “Dose-Dependent Effect”; in data set [7], “Non-Toxic”; in data set [8] it was “Dose-Dependent Effect”; in [9], “Dose-Dependent Effect”; in [10], “Dose-Dependent Effect”. The result in data set [4] was inactive. Moreover, the IC50 in [5] stood at 3.13 µM. Besides, the inhibition entry in data set [13] and in [14] was “Dose-Dependent Effect” each time.
For `COc1ccc2c(c1)c(CC(=O)O)c(C)n2C(=O)c1ccc(Cl)cc1` [INDOMETHACIN], the IC50 in data set [5] was 7.31 µM. In data set [15], the inhibition result was “Active”.
As to `C=C1CC[C@H]2C(C)(C)CCC[C@]2(C)[C@H]1C/C=C(\CC(=O)OCc1cn(CCN2C(=O)C(=O)c3ccccc32)nn1)C(=O)OCc1cn(CCN2C(=O)C(=O)c3ccccc32)nn1`, the result in data set [2], in data set [11] and in data set [12] was Active. For the same compound, in data set [7], the Activity result is “Non-Toxic”.
On to `C=C1CC[C@H]2C(C)(C)CCC[C@]2(C)[C@H]1C/C=C(/C=O)CC(=O)OCc1cn(CCN2C(=O)C(=O)c3cc(Cl)ccc32)nn1`, for which the result in data set [2] and in [11] was Active. For the same compound, the Activity entry in data set [7] is recorded as “Non-Toxic”. In data set [12], the result was inactive.
With `C=C1CC[C@H]2C(C)(C)CCC[C@]2(C)[C@H]1C/C=C(/C=O)CC(=O)OCc1cn(CCN2C(=O)C(=O)c3cc(OC(F)(F)F)ccc32)nn1`, the result in data set [2], in [11] and in data set [12] was Active. Moreover, the Activity entry in [7] is “Non-Toxic”.
As to `CN(C)c1ccc(/C=C/C(=O)c2cccc(-n3cc(CN4C(=O)C(=O)c5ccccc54)nn3)c2)cc1`, the half-inhibitory concentration (IC50) in data set [16] was 1.58 µM.
